# Data from publication PMC5731253 (Journal of medicinal chemistry, 2017).
# Read-outs that look alike come from different tables or passages of the source.
# Tests used:
# [1] = test system: human embryonic lung (HEL) fibroblasts
# [2] = test system: thymidine kinase-deficient (TK−) HSV-1 KOS strain; assay type: cell-based, herpes simplex virus type 1; conditions: HEL cell cultures
# TK- VZV (07-1) = assay type: cell-based, varicella-zoster virus
# [3] = test system: human embryonic lung (HEL) fibroblasts; experiment: Minimum cytotoxic concentration, HEL cell morphology
# HIV-1 = HIV-1 inhibition in human tonsillar tissues ex vivo; assay type: cell-based, human immunodeficiency virus type 1; conditions: HIV-1 X4LAI.04, 12 days culture
Structure (SMILES),Cytotoxicity MCC [1],fold more active than ACV against VZV TK− 07-1 strain (TK- VZV (07-1)),Cytotoxicity MCC ([3]; Table 3 (HSV assays)),Cytotoxicity MCC ([3]; Table 4 (HCMV/VZV assays)),further results
"Nc1nc(O)c2ncn(COC(CO)CO)c2n1 [Compound 1, ganciclovir, reference compound]",>100 µM,–,–,–,–
"Nc1nc2c(ncn2CCC(CO)CO)c(=O)[nH]1 [Compound 2, penciclovir, reference compound]",>100 µM,–,–,–,–
CC(C)(NP(=O)(OCC(CO)OCn1cnc2c(=O)[nH]c(N)nc21)Oc1ccccc1)C(=O)OCc1ccccc1 (stereo not shown) [Compound 20],–,≥ 20 fold,>100 µM,>50 µM,fold difference in EC50 values between HSV-1 TK+ and TK− strains [2]: < 2.5 fold
C[C@H](NP(=O)(OCC(CO)OCn1cnc2c(=O)[nH]c(N)nc21)Oc1ccccc1)C(=O)OCc1ccccc1 (stereo partly shown) [Compound 27],–,≥ 20 fold,>100 µM,>100 µM,–
C[C@H](NP(=O)(OCC(COP(=O)(N[C@@H](C)C(=O)OCc1ccccc1)Oc1ccccc1)SCn1cnc2c(=O)[nH]c(N)nc21)Oc1ccccc1)C(=O)OCc1ccccc1 (stereo partly shown) [Compound 55],–,–,–,–,Anti-HIV Activity EC50 (HIV-1): did not inhibit HIV
